Test results published in PubChem BioAssay (NCI).
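Assay format: 96-well plates, 48-hour exposure. TGI marks complete inhibition of growth.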

Experiments:
Experiment in all cases: NCI-60 cell line screen, 48 h
CAKI-1 renal = system: CAKI-1 renal
COLO 205 colon = system: COLO 205 colon
DMS 273 small cell lung = system: DMS 273 small cell lung
HCT-15 colon = system: HCT-15 colon
K-562 leukemia = system: K-562 leukemia
MALME-3M melanoma = system: MALME-3M melanoma
NCI-H23 lung = system: NCI-H23 lung
OVCAR-3 ovarian = system: OVCAR-3 ovarian
OVCAR-4 ovarian = system: OVCAR-4 ovarian
SF-539 CNS = system: SF-539 CNS
SK-MEL-2 melanoma = system: SK-MEL-2 melanoma
SK-OV-3 ovarian = system: SK-OV-3 ovarian
UACC-257 melanoma = system: UACC-257 melanoma
UACC-62 melanoma = system: UACC-62 melanoma
UO-31 renal = system: UO-31 renal
DU-145 prostate = system: DU-145 prostate
HS 578T breast = system: HS 578T breast
MCF7 breast = system: MCF7 breast
MDA-MB-435 = system: MDA-MB-435
NCI/ADR-RES ovarian = system: NCI/ADR-RES ovarian

Structure (SMILES)	TGI (CAKI-1 renal)	TGI (COLO 205 colon)	TGI (DMS 273 small cell lung)	TGI (HCT-15 colon)	TGI (K-562 leukemia)	TGI (MALME-3M melanoma)	TGI (NCI-H23 lung)	TGI (OVCAR-3 ovarian)	TGI (OVCAR-4 ovarian)	TGI (SF-539 CNS)	TGI (SK-MEL-2 melanoma)	TGI (SK-OV-3 ovarian)	TGI (UACC-257 melanoma)	TGI (UACC-62 melanoma)	TGI (UO-31 renal)	TGI (DU-145 prostate)	TGI (HS 578T breast)	TGI (MCF7 breast)	TGI (MDA-MB-435)	TGI (NCI/ADR-RES ovarian)
C=CCNC(=O)N(CCCCC(NC(C)=O)C(=O)NCc1ccccc1)Cc1ccccc1 (configuration not stated)	> 100 µM	> 100 µM	> 100 µM	> 100 µM	> 100 µM	> 100 µM	> 100 µM	> 100 µM	> 100 µM	> 100 µM	> 100 µM	> 100 µM	> 100 µM	> 100 µM	> 100 µM	–	–	–	–	–
BrC1=CCC23CC=C(Br)[C@H]4CC2(COC3)C[C@@H]1O4 (some centres not stated)	–	> 100 µM	> 100 µM	> 100 µM	89 µM	> 100 µM	> 100 µM	> 100 µM	> 100 µM	> 100 µM	> 100 µM	–	–	> 100 µM	82.4 µM	–	–	–	–	–
O=c1cc(-c2ccccc2)c2ccccc2[nH]1	90.2 µM	> 100 µM	> 100 µM	> 100 µM	> 100 µM	90.9 µM	> 100 µM	–	> 100 µM	> 100 µM	> 100 µM	84.8 µM	> 100 µM	> 100 µM	55.9 µM	–	–	–	–	–
Cc1ccc(NCC(=O)N2CC(=O)Nc3ccccc32)c(C)c1	> 100 µM	> 100 µM	> 100 µM	> 100 µM	> 100 µM	> 100 µM	> 100 µM	> 100 µM	> 100 µM	> 100 µM	> 100 µM	> 100 µM	> 100 µM	> 100 µM	> 100 µM	–	–	–	–	–
CS(=O)(=O)OC1CCC2(C#N)CCC1C2=O (configuration not stated)	> 100 µM	> 100 µM	> 100 µM	> 100 µM	> 100 µM	> 100 µM	> 100 µM	> 100 µM	> 100 µM	> 100 µM	> 100 µM	> 100 µM	> 100 µM	> 100 µM	> 100 µM	–	–	–	–	–
CC(C)=CC1C[C@H](C2CC=C3C2(C)CCC2[C@@]3(C)C(=O)CC3[C@]2(C)C=CC(=O)[C@]3(C)CO)CO1 (some centres not stated)	49 µM	27.2 µM	18.4 µM	40.5 µM	31.3 µM	16.8 µM	19.1 µM	13.2 µM	41.3 µM	11.9 µM	14.8 µM	39.6 µM	30.8 µM	31 µM	33.1 µM	–	–	–	–	–
[N-]=[N+]=NC(CCl)c1cn([C@H]2C[C@H](O)[C@@H](CO)O2)c(=O)[nH]c1=O (some centres not stated)	> 100 µM	> 100 µM	> 100 µM	> 100 µM	> 100 µM	> 100 µM	> 100 µM	> 100 µM	–	> 100 µM	> 100 µM	> 100 µM	–	> 100 µM	> 100 µM	–	–	–	–	–
CC(=O)OC/C=C/[C@H](O[Si](C)(C)C(C)(C)C)[C@@H](O)/C=C/COC(C)=O	> 100 µM	> 100 µM	–	> 100 µM	52.8 µM	> 100 µM	> 100 µM	> 100 µM	> 100 µM	> 100 µM	> 100 µM	> 100 µM	> 100 µM	> 100 µM	> 100 µM	> 100 µM	> 100 µM	> 100 µM	> 100 µM	> 100 µM
CC1(C)CC(C2=NCCO2)CC(C)(C)N1	> 100 µM	> 100 µM	–	> 100 µM	> 100 µM	> 100 µM	> 100 µM	> 100 µM	> 100 µM	> 100 µM	> 100 µM	> 100 µM	> 100 µM	> 100 µM	> 100 µM	> 100 µM	> 100 µM	61.1 µM	> 100 µM	> 100 µM
